From patent publication US8906946B2, “TRPM8 receptor antagonists” (Dompe' S.p.A., priority 2011, dated 2014)
Where “and” joins values, the source holds several entries; their conditions need not be identical. Equal values may be shown once.

Key:
t1/2 i.v. rat = conditions: in vivo, iv
human TRPM8 [1] = biological target: T1, human TRPM8 (Homo sapiens, UniProt Q7Z2W7); experiment: Selectivity analysis, calcium influx assay (Fluo-8, FLIPR TETRA), hTRPM8 in CHO cells; format: cell-based; parameters: expressed in transfected cells; host or cells: CHO
Description: The following 3 cloned human channels were evaluated in this study. • 1. Cloned hTRPM8 channels (encoded by the human TRPM8 gene, stably expressed in CHO cells), • 2. Cloned hTRPV1 channels (encoded by the human TRPV1 gene, stably expressed in HEK293 cells), • 3. Cloned hTRPV4 channels (encoded by the human TRPV4 gene, stably expressed in CHO cells). […] The ability of compound (1) to act as an antagonist of TRPM8 was evaluated with a calcium influx assay. […] Values were considered significant and highlighted in yellow if the test article mean was three or more standard deviations away from the positive control agonist mean.

human TRPM8 [2] = biological target: T1, human TRPM8; experiment: High-throughput FLIPR TETRA calcium fluorescence assay for TRPM8 antagonists in HEK293/hTRPM8 cells; format: cell-based; parameters: expressed in transfected cells; conditions: agonist Cooling Agent 10 at EC80, Ca2+ fluorescence
From the text: A functional cell-based assay for the identification of TRPM8 receptor antagonists, optimised to allow high throughput screening at FLIPR^TETRA, was developed in HEK293 cells by stable pure clone selection and functional characterization with a fluorescent calcium sensitive dye.
TRPM8 was cloned into the multiple clonig site of pcDNA3 mammalian expression vector; the obtained construct pcDNA3/hTRPM8 was fully sequence verified and used for the transfection of HEK293 cell line. HEK293 cells stably transfected with TRPM8 gene were maintained in Minimum essential medium. The cells were transfected with the pcDNA3/hTRPM8 vector by electroporation and then selected with medium containing 0.8 mg/ml G418 for 10-15 days.
The following commercial compounds were used as ligands: • Activator: Cooling Agent 10 (Takasago CAS N. 87061-04-9) • Blocker: Capsazepine (SIGMA cat #D—5879)
The experimental activities were performed using FLIPR^TETRA instruments.
HEK293 cells stably transfected with TRPM8 gene were maintained in Minimum essential medium.
The TRPM8 cell line was analysed for the response to a library of compounds using a Ca^2+ mobilization-dependent fluorescence signal in 384 wells microtiter plate format. The analysis was performed using the FLIPR^TETRA (MDC) with the ICCD Camera.
The execution of the assay involved the use of three microtiter plates:
1. Assay plate, containing cells loaded with dye and prepared as follows:
Cells were seeded at 15000 c/well in Poly-D-Lysine coated 384 wells Microtiter Plates in complete medium (25 μl/well).
24 h after seeding, the cell plates were washed with Tyrode assay buffer by the Microplate Washer and 10 μL of Tyrode assay buffer was left in each well.
Cells were then loaded with 10 μL/well of the Fluo-4 NW dye solution by CyBi®-Well pipettor. Each bottle of Fluo4-NW dye (Molecular Probes cat. #F36206, component A) was re-suspended in 8 mL of Tyrode assay buffer and supplemented with 100 μL of water-soluble probenecid (MolecularProbes cat.#F36206, component B).
Dye loaded cell plates were incubated for 1 h at room temperature.
2. Compound Dilution Plate (FIG. 1), containing diluted test compounds, formulated as follows: • Column 1: wells containing Assay Buffer plus DMSO 0.5% final • Column 2: wells alternating Max Signal Control in first injection (Maximum Response: Cooling Agent 10 at EC100, 100 μM) and Min Signal Control in first injection (Assay buffer plus 0.5% DMSO final); • Columns 3-22: wells containing Assay Buffer plus 0.5% DMSO final. To these wells the compounds to be tested were added at 3× concentration. • Column 23: alternating wells of Max Signal Control in second injection (Assay buffer) and Min Signal Control in second injection (Antagonist Capsazepine IC100, 50 μM) in Assay buffer plus 0.5% DMSO final; • Column 24: wells containing Capsazepine (Antagonist) at 8 concentrations in duplicate at final concentrations of […] in Assay buffer plus 0.5% DMSO final.
3. Activator Plate (FIG. 2), containing agonist Cooling Agent 10 at EC80, formulated as follows: • Column 1: Cooling Agent 10 (Agonist) at 8 concentrations dose response in duplicate at final concentrations of […] in Assay buffer; • Columns 2-24: Cooling Agent 10 (Agonist) at EC80 (3 fold concentrated, 20 μM final) in Assay buffer.
The test was carried out according to a procedure comprising the following steps: • 1. The samples contained in the wells of the Compound Plate were added to the corresponding wells of the Assay Plate by the FLIPR^TETRA, thus resulting in the addition in Columns 3-22 of the test compounds at 3× concentration to the cells of the assay plates. No mixing was performed in the assay wells and the signal of the emitted fluorescence was recorded for 300 seconds. • 2.

hepatocytes [3] = experiment: Metabolic stability hepatocytes, human; format: in vitro ADME
Plasma stability, rat = format: in vitro ADME
CYP3A4 = CYP3A4 (Homo sapiens, UniProt P08684); experiment: CYP inhibition 3A4; format: in vitro ADME; conditions: 3A4, 10 μM
[4] = Plasma Protein Binding, rat; format: in vitro ADME
Plasma stability, human = format: in vitro ADME
hepatocytes [5] = experiment: Metabolic stability hepatocytes, rat; format: in vitro ADME
CYP2D6 = CYP2D6 (Homo sapiens, UniProt P10635); experiment: CYP inhibition 2D6; format: in vitro ADME; conditions: 2D6, 10 μM
[6] = CHO, read-out: normalized % inhibition TRPM8

T1 sequence (Q7Z2W7 whole entry): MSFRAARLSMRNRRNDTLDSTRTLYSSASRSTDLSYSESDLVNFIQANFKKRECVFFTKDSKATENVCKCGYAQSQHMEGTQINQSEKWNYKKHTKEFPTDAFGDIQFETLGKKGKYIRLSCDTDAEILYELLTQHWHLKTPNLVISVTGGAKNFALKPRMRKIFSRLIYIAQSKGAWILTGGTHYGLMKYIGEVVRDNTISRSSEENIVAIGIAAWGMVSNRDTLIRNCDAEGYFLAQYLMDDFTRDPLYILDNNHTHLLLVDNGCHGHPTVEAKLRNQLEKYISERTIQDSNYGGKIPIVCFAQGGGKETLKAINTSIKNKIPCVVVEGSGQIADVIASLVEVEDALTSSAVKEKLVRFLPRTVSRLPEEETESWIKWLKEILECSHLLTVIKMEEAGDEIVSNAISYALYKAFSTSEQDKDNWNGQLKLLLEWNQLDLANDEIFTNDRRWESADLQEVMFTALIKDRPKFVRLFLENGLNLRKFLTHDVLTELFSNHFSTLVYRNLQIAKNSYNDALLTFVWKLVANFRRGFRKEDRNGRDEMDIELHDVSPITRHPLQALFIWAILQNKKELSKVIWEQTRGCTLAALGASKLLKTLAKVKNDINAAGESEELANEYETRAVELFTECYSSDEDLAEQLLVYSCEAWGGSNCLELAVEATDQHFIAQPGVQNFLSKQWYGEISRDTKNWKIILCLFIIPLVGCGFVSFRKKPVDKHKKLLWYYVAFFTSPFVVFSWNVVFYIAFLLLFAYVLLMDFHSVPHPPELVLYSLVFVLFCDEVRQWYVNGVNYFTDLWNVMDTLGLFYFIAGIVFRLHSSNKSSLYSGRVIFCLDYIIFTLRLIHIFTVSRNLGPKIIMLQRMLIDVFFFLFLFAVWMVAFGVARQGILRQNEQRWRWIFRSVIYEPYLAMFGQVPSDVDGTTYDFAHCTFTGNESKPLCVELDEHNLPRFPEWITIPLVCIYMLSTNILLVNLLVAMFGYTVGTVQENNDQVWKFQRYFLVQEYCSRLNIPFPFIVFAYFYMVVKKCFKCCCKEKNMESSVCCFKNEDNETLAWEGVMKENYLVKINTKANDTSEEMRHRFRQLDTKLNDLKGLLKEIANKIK
Chain of CYP2D6 (P10635 whole entry): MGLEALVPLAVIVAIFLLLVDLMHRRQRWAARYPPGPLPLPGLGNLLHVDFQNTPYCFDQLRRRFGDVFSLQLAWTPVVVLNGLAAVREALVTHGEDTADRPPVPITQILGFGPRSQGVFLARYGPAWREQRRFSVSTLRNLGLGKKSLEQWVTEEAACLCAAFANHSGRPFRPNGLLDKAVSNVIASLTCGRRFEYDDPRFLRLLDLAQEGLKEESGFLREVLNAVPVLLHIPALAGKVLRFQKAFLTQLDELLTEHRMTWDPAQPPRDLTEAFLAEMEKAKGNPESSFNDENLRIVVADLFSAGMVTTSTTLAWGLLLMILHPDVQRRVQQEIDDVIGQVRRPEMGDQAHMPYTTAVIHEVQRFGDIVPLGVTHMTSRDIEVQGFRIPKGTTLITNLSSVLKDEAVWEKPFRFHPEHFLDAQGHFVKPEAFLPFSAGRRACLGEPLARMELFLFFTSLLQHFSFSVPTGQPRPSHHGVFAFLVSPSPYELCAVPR
Chain of CYP3A4 (P08684 whole entry): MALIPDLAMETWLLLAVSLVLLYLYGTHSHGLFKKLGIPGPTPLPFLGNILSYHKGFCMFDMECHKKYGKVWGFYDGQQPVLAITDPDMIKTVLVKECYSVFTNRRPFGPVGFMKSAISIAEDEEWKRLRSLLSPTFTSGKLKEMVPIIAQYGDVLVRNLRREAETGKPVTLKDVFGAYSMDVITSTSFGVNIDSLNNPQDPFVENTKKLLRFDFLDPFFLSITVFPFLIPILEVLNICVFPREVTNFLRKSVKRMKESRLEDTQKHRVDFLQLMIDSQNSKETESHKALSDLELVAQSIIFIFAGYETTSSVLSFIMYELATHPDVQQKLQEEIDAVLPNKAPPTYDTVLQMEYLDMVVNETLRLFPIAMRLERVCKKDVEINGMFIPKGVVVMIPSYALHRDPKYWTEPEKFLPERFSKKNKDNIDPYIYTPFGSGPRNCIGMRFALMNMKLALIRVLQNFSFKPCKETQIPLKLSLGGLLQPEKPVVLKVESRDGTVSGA

Compound Cl.Clc1c(OCCNCc2ccco2)ccc2ccccc12 [Compound 1, 2-[(1-chloronaphthalen-2-yl)oxy]-N-(furan-2-ylmethyl)ethanaminium chloride] has a half-life (t1/2 i.v. rat) of 1.05 h, an inhibition at 0.001 µM (human TRPM8 [1]; [6]) of -25.2% and an inhibition at 0.01 µM (human TRPM8 [1]; [6]) of 21.4%. For the same compound, the inhibition at 0.1 µM (human TRPM8 [1]; [6]) was 95.6%, the inhibition at 1 µM (human TRPM8 [1]; [6]) was 95.6% and the inhibition at 10 µM (human TRPM8 [1]; [6]) was 96.4%. For the same compound, the IC50 (human TRPM8 [1]; read-out: IC50 (TRPM8)) was 70 nM, the IC50 (human TRPM8 [2]) was < 10000 nM and 70 nM and the “Metabolic stability hepatocytes (% remaining at 120 min @1 μM)” value (hepatocytes [3]) was 2.6%. For the same compound, the “Plasma stability (% remaining) @10 μM” value (Plasma stability, rat) was 87%, the inhibition at 10 µM (CYP3A4) was 33.3% and the fraction unbound at 10 μM [4] was 0.03. The “Plasma stability (% remaining) @10 μM” value (Plasma stability, human) was 96%, the “Metabolic stability hepatocytes (% remaining at 120 min @1 μM)” value (hepatocytes [5]) was 5.0% and the inhibition at 10 µM (CYP2D6) was 100%.
